Values after ≈ are worked out from the molar mass of the structure shown.

Format in all cases: functional
Experiment [1] has as its system Staphylococcus aureus. Put plainly: Antibacterial activity against methicillin resistant Staphylococcus aureus clinical isolate assessed as inhibition of bacterial growth incubated for 24 hrs.
For experiment [2], the system named is Staphylococcus aureus. As to the kind of experiment: Antibacterial activity against Staphylococcus aureus clinical isolate assessed as inhibition of bacterial growth incubated for 24 hrs.
The subject of experiment [3] is Staphylococcus aureus. Put plainly: Antibacterial activity against Staphylococcus aureus ATCC 25923 assessed as inhibition of bacterial growth incubated for 24 hrs.
The subject of experiment [4] is Staphylococcus aureus. As to the kind of experiment: Antibacterial activity against Staphylococcus aureus ATCC 29213 assessed as inhibition of bacterial growth incubated for 24 hrs.
Another experiment concerns Enterococcus faecalis. As to the kind of experiment: Antibacterial activity against Enterococcus faecalis clinical isolate assessed as inhibition of bacterial growth incubated for 24 hrs.
For another experiment, the system named is Klebsiella pneumoniae. Put plainly: Antibacterial activity against Klebsiella pneumoniae clinical isolate assessed as inhibition of bacterial growth incubated for 24 hrs.
Experiment [5] concerns Escherichia coli. As to the kind of experiment: Antibacterial activity against Escherichia coli clinical isolate assessed as inhibition of bacterial growth incubated for 24 hrs.
The test system of experiment [6] is Escherichia coli. As to the kind of experiment: Antibacterial activity against Escherichia coli ATCC 25922 assessed as inhibition of bacterial growth incubated for 24 hrs.
For experiment [7], the system named is Pseudomonas aeruginosa. Put plainly: Antibacterial activity against Pseudomonas aeruginosa clinical isolate assessed as inhibition of bacterial growth incubated for 24 hrs.
For experiment [8], the system named is Pseudomonas aeruginosa. As to the kind of experiment: Antibacterial activity against Pseudomonas aeruginosa ATCC 27853 assessed as inhibition of bacterial growth incubated for 24 hrs.
The next experiment has as its system Acinetobacter baumannii. Put plainly: Antibacterial activity against Acinetobacter baumannii clinical isolate assessed as inhibition of bacterial growth incubated for 24 hrs.

Regarding `N#CCc1cc2c(cc1F)c(=O)c(C(=O)O)cn2CC1CCCCC1`, the minimal inhibitory concentration (MIC) in the experiment on Staphylococcus aureus [1], with Staphylococcus aureus [2], with Staphylococcus aureus [3], with Staphylococcus aureus [4], with Enterococcus faecalis and in the experiment with Klebsiella pneumoniae was 256 µg/mL (≈ 748 µM) throughout. Also, the minimum inhibitory concentration (MIC) with Escherichia coli [5] is 256 µg/mL (≈ 748 µM); with Escherichia coli [6] it was 256 µg/mL (≈ 748 µM); in the experiment on Pseudomonas aeruginosa [7], 16 µg/mL (≈ 46.7 µM); in the experiment on Pseudomonas aeruginosa [8], 256 µg/mL (≈ 748 µM); in the experiment with Acinetobacter baumannii it was 256 µg/mL (≈ 748 µM).

Turning to `CCn1cc(C(=O)O)c(=O)c2cc(F)c(CC#N)c(F)c21`, the MIC in the experiment with Staphylococcus aureus [1] came out at 1 µg/mL (≈ 3.42 µM); in the experiment on Staphylococcus aureus [2], 0.25 µg/mL (≈ 0.855 µM); with Staphylococcus aureus [3], 16 µg/mL (≈ 54.7 µM); in the experiment with Staphylococcus aureus [4] it was 1 µg/mL (≈ 3.42 µM); in the experiment with Enterococcus faecalis, 8 µg/mL (≈ 27.4 µM); in the experiment with Klebsiella pneumoniae, 16 µg/mL (≈ 54.7 µM). Also, the MIC was found to be 4 µg/mL (≈ 13.7 µM) in the experiment with Escherichia coli [5]; 0.5 µg/mL (≈ 1.71 µM) in the experiment with Escherichia coli [6]; 1 µg/mL (≈ 3.42 µM) with Pseudomonas aeruginosa [7]; 4 µg/mL (≈ 13.7 µM) in the experiment with Pseudomonas aeruginosa [8]; 0.5 µg/mL (≈ 1.71 µM) in the experiment with Acinetobacter baumannii.

As for `CCCCCCCCn1cc(C(=O)O)c(=O)c2cc(F)c(CC(=O)O)cc21`, the minimum inhibitory concentration (MIC) in the experiment with Staphylococcus aureus [1] stood at 4 µg/mL (≈ 10.6 µM); in the experiment with Staphylococcus aureus [2], 16 µg/mL (≈ 42.4 µM); in the experiment with Staphylococcus aureus [3], 4 µg/mL (≈ 10.6 µM); in the experiment with Staphylococcus aureus [4], 4 µg/mL (≈ 10.6 µM); in the experiment on Enterococcus faecalis, 2 µg/mL (≈ 5.3 µM); in the experiment with Klebsiella pneumoniae, 0.5 µg/mL (≈ 1.32 µM). Also, the MIC with Escherichia coli [5] was 2 µg/mL (≈ 5.3 µM); in the experiment on Escherichia coli [6], 2 µg/mL (≈ 5.3 µM); in the experiment with Pseudomonas aeruginosa [7], 1 µg/mL (≈ 2.65 µM); with Pseudomonas aeruginosa [8], 2 µg/mL (≈ 5.3 µM); with Acinetobacter baumannii, 4 µg/mL (≈ 10.6 µM).

In the case of `N#CCc1cc2c(cc1F)c(=O)c(C(=O)O)cn2Cc1cccc(Cl)c1`, the MIC turned out to be 256 µg/mL (≈ 690 µM) in the experiment with Staphylococcus aureus [1]; 256 µg/mL (≈ 690 µM) in the experiment on Staphylococcus aureus [2]; 0.5 µg/mL (≈ 1.35 µM) in the experiment on Staphylococcus aureus [3]; 0.5 µg/mL (≈ 1.35 µM) in the experiment with Staphylococcus aureus [4]; 256 µg/mL (≈ 690 µM) in the experiment on Enterococcus faecalis; 1 µg/mL (≈ 2.7 µM) in the experiment on Klebsiella pneumoniae. For the same molecule, the minimal inhibitory concentration (MIC) in the experiment on Escherichia coli [5] amounted to 2 µg/mL (≈ 5.39 µM); in the experiment with Escherichia coli [6], 0.5 µg/mL (≈ 1.35 µM); in the experiment on Pseudomonas aeruginosa [7], 0.25 µg/mL (≈ 0.674 µM); in the experiment with Pseudomonas aeruginosa [8], 0.5 µg/mL (≈ 1.35 µM); with Acinetobacter baumannii, 16 µg/mL (≈ 43.2 µM).

`N#CCc1cc2c(cc1F)c(=O)c(C(=O)O)cn2Cc1ccc(Cl)c(Cl)c1`: the MIC with Staphylococcus aureus [1] came out at 256 µg/mL (≈ 632 µM); with Staphylococcus aureus [2] it was 256 µg/mL (≈ 632 µM); in the experiment on Staphylococcus aureus [3], 0.25 µg/mL (≈ 0.617 µM); with Staphylococcus aureus [4] it was 2 µg/mL (≈ 4.94 µM); in the experiment with Enterococcus faecalis, 256 µg/mL (≈ 632 µM); in the experiment with Klebsiella pneumoniae it was 16 µg/mL (≈ 39.5 µM). The minimum inhibitory concentration (MIC) in the experiment on Escherichia coli [5] is 8 µg/mL (≈ 19.7 µM); with Escherichia coli [6], 2 µg/mL (≈ 4.94 µM); in the experiment on Pseudomonas aeruginosa [7], 0.5 µg/mL (≈ 1.23 µM); in the experiment with Pseudomonas aeruginosa [8], 2 µg/mL (≈ 4.94 µM); in the experiment with Acinetobacter baumannii, 0.5 µg/mL (≈ 1.23 µM).

As for `Cn1cc(C(=O)O)c(=O)c2cc(F)c(CC#N)cc21`, the MIC with Staphylococcus aureus [1] worked out at 2 µg/mL (≈ 7.69 µM); with Staphylococcus aureus [2], 1 µg/mL (≈ 3.84 µM); with Staphylococcus aureus [3], 1 µg/mL (≈ 3.84 µM); in the experiment on Staphylococcus aureus [4], 8 µg/mL (≈ 30.7 µM); in the experiment with Enterococcus faecalis, 4 µg/mL (≈ 15.4 µM); in the experiment with Klebsiella pneumoniae, 0.5 µg/mL (≈ 1.92 µM). For the same molecule, the minimum inhibitory concentration (MIC) was 16 µg/mL (≈ 61.5 µM) in the experiment on Escherichia coli [5]; 1 µg/mL (≈ 3.84 µM) with Escherichia coli [6]; 0.5 µg/mL (≈ 1.92 µM) in the experiment on Pseudomonas aeruginosa [7]; 2 µg/mL (≈ 7.69 µM) in the experiment on Pseudomonas aeruginosa [8]; 4 µg/mL (≈ 15.4 µM) in the experiment with Acinetobacter baumannii.

With `O=C(O)Cc1cc2c(cc1F)c(=O)c(C(=O)O)cn2Cc1ccccn1`, the minimum inhibitory concentration (MIC) was found to be 128 µg/mL (≈ 359 µM) in the experiment with Staphylococcus aureus [1]; 64 µg/mL (≈ 180 µM) with Staphylococcus aureus [2]; 16 µg/mL (≈ 44.9 µM) in the experiment on Staphylococcus aureus [3]; 64 µg/mL (≈ 180 µM) with Staphylococcus aureus [4]; 16 µg/mL (≈ 44.9 µM) with Enterococcus faecalis; 8 µg/mL (≈ 22.5 µM) in the experiment with Klebsiella pneumoniae. The minimal inhibitory concentration (MIC) in the experiment on Escherichia coli [5] amounted to 128 µg/mL (≈ 359 µM); with Escherichia coli [6], 32 µg/mL (≈ 89.8 µM); in the experiment on Pseudomonas aeruginosa [7], 64 µg/mL (≈ 180 µM); in the experiment on Pseudomonas aeruginosa [8], 8 µg/mL (≈ 22.5 µM); in the experiment with Acinetobacter baumannii it was 64 µg/mL (≈ 180 µM).

What is called MIC is the lowest concentration found to suppress growth.

Values taken from ChEMBL document CHEMBL5506059, “Cyanomethylquinolones as a New Class of Potential Multitargeting Broad-Spectrum Antibacterial Agents” (J Med Chem, 2024).
